# Source: paper PMC7089538, “The effects of intra-stomach obestatin administration on intestinal contractility in neonatal piglets fed milk formula” (PLoS ONE, 2020)
# Where two headings read alike, the source gives them in different places. Marks after values point to notes of the source that are not given here. Where no end group is shown, it is not given here.
# What was measured:
# middle jejunum [1] = assay: ACh-stimulated or atropine-treated contractions; assay type: in vivo, piglets (Polish Landrace x Pietrain); conditions: 6 days, middle jejunum strips, mean ± SEM; for amplitude of atropine treated contractions: atropine pretreatment (ATR^-6)
# Experimental: (§1) Piglets' BW was recorded every morning. […] The protein concentration in the milk formula was 20%. […] The tissues were attached to isotonic transducers (Letica Scientific Instruments, Spain) under a load of 1.0 g that were coupled with a PowerLab recording system (ADInstruments, Sydney, Australia). […] The tissues were then washed and allowed to equilibrate. […] Half of randomly selected jejunal segments were pre-treated with atropine.
# duodenum [2] = assay: Histology: thickness of intestinal muscularis layer; assay type: in vivo, piglets (Polish Landrace x Pietrain); conditions: 6 days, H&E histometry, mean ± SEM
# Experimental: (§2) Piglets' BW was recorded every morning. […] The protein concentration in the milk formula was 20%. […] Briefly, the samples were routinely embedded in paraffin and cut into 4.5 μm sections and applied to silane-treated slides. Next, the sections were immersed in xylene for dewaxing and then in descending grades of alcohol for rehydration. The segments were routinely stained using hematoxylin and eosin.
# middle jejunum [3] = assay: as above; assay type: in vivo, piglets (Polish Landrace x Pietrain); conditions: 6 days, H&E histometry, mean ± SEM
# Experimental: as §2
# in vivo = conditions: male, Polish Landrace x Pietrain, pig, po, obestatin concentration in the blood plasma
# duodenum [4] = assay: ACh-stimulated or atropine-treated contractions; assay type: in vivo, piglets (Polish Landrace x Pietrain); conditions: 6 days, duodenum strips, atropine pretreatment (ATR^-6), mean ± SEM
# middle jejunum [5] = conditions: middle jejunum strips; for EFS-evoked amplitude of contraction: 6 days, mean ± SEM
# duodenum [6] = assay: Spontaneous contractility of whole-thickness preparations in organ bath after 6-day enteral obestatin; assay type: in vivo, piglets (Polish Landrace x Pietrain); conditions: O15: obestatin 15 μg/kg BW intra-stomach every 8 h, 6 days; duodenal segment (Fig 2)
# Experimental: as §1
# middle jejunum [7] = assay: as above; assay type: in vivo, piglets (Polish Landrace x Pietrain); conditions: 6 days, middle jejunum (Fig 2)
# Experimental: as §1
# [8] = O10: obestatin 10 μg/kg BW intra-stomach every 8 h
# [9] = O15: obestatin 15 μg/kg BW intra-stomach every 8 h
# [10] = O2: obestatin 2 μg/kg BW intra-stomach every 8 h
substance,measurement,setting,value
FNAPFDVGIKLSGAQYQQHGRAL-NH2 [obestatin],amplitude of ACh stimulated contractions,"middle jejunum [1]; O10: obestatin 10 μg/kg BW intra-stomach every 8 h, ACh^-7 (10^−7 M, cumulative)",4.8 ± 0.9 mm
same,amplitude of ACh stimulated contractions,"middle jejunum [1]; O10: obestatin 10 μg/kg BW intra-stomach every 8 h, ACh^-8 (10^−8 M, cumulative)",4.6 ± 0.9 mm
same,amplitude of ACh stimulated contractions,"middle jejunum [1]; O10: obestatin 10 μg/kg BW intra-stomach every 8 h, ACh^-9 (10^−9 M, cumulative)",3.9 ± 0.8^a^b mm
same,amplitude of atropine treated contractions,middle jejunum [1]; [8],1.10 ± 0.2^b mm
same,amplitude of ACh stimulated contractions,"middle jejunum [1]; O15: obestatin 15 μg/kg BW intra-stomach every 8 h, ACh^-4 (10^−4 M, cumulative)",13.7 ± 0.8^b mm
same,amplitude of ACh stimulated contractions,"middle jejunum [1]; O15: obestatin 15 μg/kg BW intra-stomach every 8 h, ACh^-5 (10^−5 M, cumulative)",9.0 ± 0.8 mm
same,amplitude of ACh stimulated contractions,"middle jejunum [1]; O15: obestatin 15 μg/kg BW intra-stomach every 8 h, ACh^-6 (10^−6 M, cumulative)",7.3 ± 0.8^b mm
same,amplitude of ACh stimulated contractions,"middle jejunum [1]; O15: obestatin 15 μg/kg BW intra-stomach every 8 h, ACh^-7 (10^−7 M, cumulative)",6.8 ± 0.6 mm
same,amplitude of ACh stimulated contractions,"middle jejunum [1]; O15: obestatin 15 μg/kg BW intra-stomach every 8 h, ACh^-8 (10^−8 M, cumulative)",6.7 ± 0.7 mm
same,amplitude of ACh stimulated contractions,"middle jejunum [1]; O15: obestatin 15 μg/kg BW intra-stomach every 8 h, ACh^-9 (10^−9 M, cumulative)",6.6 ± 0.7^b mm
same,amplitude of atropine treated contractions,middle jejunum [1]; [9],1.20 ± 0.1^b mm
same,Thickness of muscularis layer,duodenum [2]; [10],106 ± 11^b μm
same,Thickness of muscularis layer,duodenum [2]; [8],107 ± 8^b μm
same,Thickness of muscularis layer,duodenum [2]; [9],89 ± 8^b μm
same,Thickness of muscularis layer,middle jejunum [3]; [10],88 ± 9^a μm
same,Thickness of muscularis layer,middle jejunum [3]; [8],63 ± 7^b μm
same,Thickness of muscularis layer,middle jejunum [3]; [9],66 ± 4^b μm
same,level at 0.5 h,in vivo; 2 ug/kg BW,0.369 ± 0.026 ng/mL
same,level at 1 h,in vivo; 2 ug/kg BW,0.37 ± 0.023 ng/mL
same,level at 0.5 h,in vivo; 10 ug/kg BW,0.413 ± 0.011 ng/mL
same,level at 1 h,in vivo; 10 ug/kg BW,0.475 ± 0.022 ng/mL
same,level at 0.5 h,in vivo; 15 ug/kg BW,0.405 ± 0.026 ng/mL
same,level at 1 h,in vivo; 15 ug/kg BW,0.45 ± 0.053 ng/mL
same,amplitude of atropine treated contractions,duodenum [4]; [8],0.97 ± 0.1 mm
same,amplitude of atropine treated contractions,duodenum [4]; [9],1.0 ± 0.1 mm
same,EFS-evoked amplitude of contraction,"middle jejunum [5]; O2: obestatin 2 μg/kg BW intra-stomach every 8 h, Basal, EFS 0.5 Hz",0.53 ± 0.26^a^c mm
same,EFS-evoked amplitude of contraction,"middle jejunum [5]; O2: obestatin 2 μg/kg BW intra-stomach every 8 h, Basal, EFS 5 Hz",0.70 ± 0.35^a mm
same,EFS-evoked amplitude of contraction,"middle jejunum [5]; O2: obestatin 2 μg/kg BW intra-stomach every 8 h, Basal, EFS 50 Hz",1.22 ± 0.59^a mm
same,EFS-evoked amplitude of contraction,"middle jejunum [5]; O2: obestatin 2 μg/kg BW intra-stomach every 8 h, TTX 10^−6 M, EFS 0.5 Hz",0.17 ± 0.07 mm
same,EFS-evoked amplitude of contraction,"middle jejunum [5]; O2: obestatin 2 μg/kg BW intra-stomach every 8 h, TTX 10^−6 M, EFS 5 Hz",0.20 ± 0.08 mm
same,EFS-evoked amplitude of contraction,"middle jejunum [5]; O2: obestatin 2 μg/kg BW intra-stomach every 8 h, TTX 10^−6 M, EFS 50 Hz",0.31 ± 0.17 mm
same,EFS-evoked amplitude of contraction,"middle jejunum [5]; O10: obestatin 10 μg/kg BW intra-stomach every 8 h, Basal, EFS 0.5 Hz",1.75 ± 0.18^a^d mm
same,EFS-evoked amplitude of contraction,"middle jejunum [5]; O10: obestatin 10 μg/kg BW intra-stomach every 8 h, Basal, EFS 5 Hz",1.75 ± 0.18^a^b mm
same,EFS-evoked amplitude of contraction,"middle jejunum [5]; O10: obestatin 10 μg/kg BW intra-stomach every 8 h, Basal, EFS 50 Hz",1.49 ± 0.30^a mm
same,EFS-evoked amplitude of contraction,"middle jejunum [5]; O10: obestatin 10 μg/kg BW intra-stomach every 8 h, TTX 10^−6 M, EFS 0.5 Hz",0.28 ± 0.10 mm
same,EFS-evoked amplitude of contraction,"middle jejunum [5]; O10: obestatin 10 μg/kg BW intra-stomach every 8 h, TTX 10^−6 M, EFS 5 Hz",0.30 ± 0.12 mm
same,EFS-evoked amplitude of contraction,"middle jejunum [5]; O10: obestatin 10 μg/kg BW intra-stomach every 8 h, TTX 10^−6 M, EFS 50 Hz",0.45 ± 0.15 mm
same,EFS-evoked amplitude of contraction,"middle jejunum [5]; O15: obestatin 15 μg/kg BW intra-stomach every 8 h, Basal, EFS 0.5 Hz",2.47 ± 0.23^b^d mm
same,EFS-evoked amplitude of contraction,"middle jejunum [5]; O15: obestatin 15 μg/kg BW intra-stomach every 8 h, Basal, EFS 5 Hz",2.74 ± 0.37^b mm
same,EFS-evoked amplitude of contraction,"middle jejunum [5]; O15: obestatin 15 μg/kg BW intra-stomach every 8 h, Basal, EFS 50 Hz",3.76 ± 0.29^b mm
same,EFS-evoked amplitude of contraction,"middle jejunum [5]; O15: obestatin 15 μg/kg BW intra-stomach every 8 h, TTX 10^−6 M, EFS 0.5 Hz",0.46 ± 0.23 mm
same,EFS-evoked amplitude of contraction,"middle jejunum [5]; O15: obestatin 15 μg/kg BW intra-stomach every 8 h, TTX 10^−6 M, EFS 5 Hz",0.34 ± 0.11 mm
same,EFS-evoked amplitude of contraction,"middle jejunum [5]; O15: obestatin 15 μg/kg BW intra-stomach every 8 h, TTX 10^−6 M, EFS 50 Hz",0.61 ± 0.27 mm
same,effect of obestatin on EFS-evoked contraction following pre-incubation with TTX,"middle jejunum [5]; TTX 10^−6 M, responses similar to saline-treated preparations",the effects of obestatin were blocked
same,amplitude of spontaneous contractions compared to C,duodenum [6],significantly higher
same,amplitude of spontaneous contractions compared to C,middle jejunum [7]; [8],significant increase in the amplitude of contractions was observed in C piglets in comparison to O10 and O15 groups
same,amplitude of spontaneous contractions compared to C,middle jejunum [7]; [9],significant increase in the amplitude of contractions was observed in C piglets in comparison to O10 and O15 groups
